How the values were obtained:
Type in all cases: in vivo
[1] = system: Stellaria media; assay: Test Example 5: herbicidal effect by foliage application, plastic box (symbol P); details: 320 g/ha, 3 weeks after application
Outline: (§1)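 After sowing into sterilized diluvial soil and growing two weeks under glass at 25° C. to 30° C., seedlings receive a uniform foliar spray of diluted emulsion. Damage is judged visually three weeks on.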

[2] = system: Echinochloa oryzacola Vasing.; assay: Test Example 2: herbicidal activity, application during weed generation in submerged conditions (symbol A); details: Table 23; application herbicide amount 320 g/ha; grade 0-5 by criteria of Test Example 1
Outline: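 Seeds sown in flooded alluvial soil (4 cm water) were grown in a 25-30° C greenhouse. At the one- to two-leaf stage, diluted emulsion of compound was applied to the water surface at a predetermined rate. Effect was scored 3 weeks later.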

[3] = system: corn; assay: Test Example 4: effect on crop by soil treatment (symbol c); details: for c: corn, effect on crop grade / c (corn) effect on crop grade: application herbicide amount 320 g/ha
Outline: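 Steps: fill box with sterilized diluvial soil; sow seed spot-like; cover with ~1.5 cm soil; grow in greenhouse (25° C. to 30° C.).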

[4] = system: Echinochloa crus-galli var. crus-galli; assay: Test Example 3: herbicidal effect by foliage application, Wagner pot (symbol H); details: application herbicide amount 320 g/ha
Outline: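 Plants sown in submerged alluvial soil (water depth 0.1–0.5 cm) in a 25–30 °C greenhouse and grown 14 days. An emulsion of the compound diluted in water to a set herbicide amount was sprayed uniformly on foliage. Effect on each plant scored 3 weeks after application.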

[5] = system: Avena fatua; assay: Test Example 5: herbicidal effect by foliage application, plastic box (symbol I); details: 320 g/ha, 3 weeks after application
Outline: as §1

[6] = system: rapeseed; assay: Test Example 4: effect on crop by soil treatment (symbol g); details: for g: rapeseed, effect on crop grade / g (rapeseed) effect on crop grade: application herbicide amount 320 g/ha
Outline: (§2)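 Greenhouse culture at 25° C. to 30° C. followed sowing of seed in spots on sterilized diluvial soil with a soil cover close to 1.5 cm thick.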

[7] = system: Setaria viridis; assay: Test Example 4: herbicidal effect by soil treatment (symbol G)
Outline: (§3)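 Seeds were sown in sterilized diluvial soil, covered with about 1.5 cm of soil, and the soil surface was sprayed with a water-diluted emulsion of the compound at a predetermined rate. Plants grew in a greenhouse at 25° C. to 30° C.; effects were scored visually 3 weeks after application.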

[8] = system: Lolium multiflorum Lam.; assay: Test Example 4: herbicidal effect by soil treatment (symbol K)
Outline: as §3

[9] = system: wheat; assay: Test Example 5: effect on crop by foliage application, plastic box (symbol e); details: 320 g/ha, 3 weeks after application
Outline: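 Crop and weed seeds sown in spots in sterilized diluvial soil in plastic boxes and covered with about 1.5 cm soil. Plants raised in a greenhouse at 25° C. to 30° C. for foliar application.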

[10] = system: directly sowed rice plant; assay: Test Example 3: effect on crop by foliage application, Wagner pot (symbol b); details: application herbicide amount 320 g/ha
Outline: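 Greenhouse culture at 25–30 °C of seeded rice, Cyperus difformis, Leptochloa chinensis and Echinochloa crus-galli var. crus-galli, in alluvial soil held under 0.1–0.5 cm of water in a Wagner pot.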

[11] = system: soybean; assay: Test Example 4: effect on crop by soil treatment (symbol d); details: for d: soybean, effect on crop grade / d (soybean) effect on crop grade: application herbicide amount 320 g/ha
Outline: as §2

[12] = application herbicide amount 320 g/ha

Row | SMILES | P: Stellaria media, herbicidal effect grade [1] | Herbicidal effect grade, A: Echinochloa oryzacola Vasing. [2] | c: corn, effect on crop grade [3] | herbicidal effect on H (Echinochloa crus-galli var. crus-galli), grade 0-5 [4] | I: Avena fatua, herbicidal effect grade [5] | g: rapeseed, effect on crop grade [6] | G: Setaria viridis, herbicidal effect grade [7, 12] | K: Lolium multiflorum Lam., herbicidal effect grade [8, 12] | e: wheat, effect on crop grade [9] | effect on crop b (directly sowed rice plant), grade 0-5 [10] | d: soybean, effect on crop grade [11] | c (corn) effect on crop grade [3] | g (rapeseed) effect on crop grade [6] | G (Setaria viridis) herbicidal effect grade [7, 12] | K (Lolium multiflorum Lam.) herbicidal effect grade [8, 12] | d (soybean) effect on crop grade [11] | other results
1 | C=Cc1cc(C)c(C2=C(O)CC(CC(C)=NOC)C2=O)c(C)c1 (mixture of isomers) [6-031] | 0 (Herbicidal ratio of 5% or lower (almost no effect)) | 4 (Herbicidal ratio of 70% or higher and lower than 90%) | 0 (Herbicidal ratio of 5% or lower (almost no effect)) | 3 (Herbicidal ratio of 40% or higher and lower than 70%) | 5 (Herbicidal ratio of 90% or more (almost completely withered)) | 3 (Herbicidal ratio of 40% or higher and lower than 70%) | 0 (Herbicidal ratio of 5% or lower (almost no effect)) | 3 (Herbicidal ratio of 40% or higher and lower than 70%) | 0 (Herbicidal ratio of 5% or lower (almost no effect)) | 4 (Herbicidal ratio of 70% or higher and lower than 90%) | 0 (Herbicidal ratio of 5% or lower (almost no effect)) | – | – | – | – | – | –
2 | CON=C(C)CC1CC(O)=C(c2c(C)cc(-c3cccc(Cl)c3)cc2C)C1=O (mixture of isomers) [6-034] | 3 (Herbicidal ratio of 40% or higher and lower than 70%) | 5 (Herbicidal ratio of 90% or more (almost completely withered)) | 1 (Herbicidal ratio of 5% or higher and lower than 20%) | 5 (Herbicidal ratio of 90% or more (almost completely withered)) | 5 (Herbicidal ratio of 90% or more (almost completely withered)) | 1 (Herbicidal ratio of 5% or higher and lower than 20%) | 5 (Herbicidal ratio of 90% or more (almost completely withered)) | 5 (Herbicidal ratio of 90% or more (almost completely withered)) | 0 (Herbicidal ratio of 5% or lower (almost no effect)) | 5 (Herbicidal ratio of 90% or more (almost completely withered)) | 0 (Herbicidal ratio of 5% or lower (almost no effect)) | – | – | – | – | – | –
3 | CON=C(C)CC1CC(O)=C(c2c(C)cc(-c3ccc(Cl)nc3)cc2C)C1=O (mixture of isomers) [6-035] | 3 (Herbicidal ratio of 40% or higher and lower than 70%) | 5 (Herbicidal ratio of 90% or more (almost completely withered)) | 2 (Herbicidal ratio of 20% or higher and lower than 40%) | 5 (Herbicidal ratio of 90% or more (almost completely withered)) | 5 (Herbicidal ratio of 90% or more (almost completely withered)) | 0 (Herbicidal ratio of 5% or lower (almost no effect)) | 5 (Herbicidal ratio of 90% or more (almost completely withered)) | 5 (Herbicidal ratio of 90% or more (almost completely withered)) | 4 (Herbicidal ratio of 70% or higher and lower than 90%) | 5 (Herbicidal ratio of 90% or more (almost completely withered)) | 0 (Herbicidal ratio of 5% or lower (almost no effect)) | – | – | – | – | – | –
4 | C#CCOC1=C(c2c(C)cc(C)cc2C)C(=O)C(CC(C)=NOC)C1 (centres unmarked) [1-008] | 0 (Herbicidal ratio of 5% or lower (almost no effect)) | 5 (Herbicidal ratio of 90% or more (almost completely withered)) | – | 5 (Herbicidal ratio of 90% or more (almost completely withered)) | 4 (Herbicidal ratio of 70% or higher and lower than 90%) | – | – | – | 0 (Herbicidal ratio of 5% or lower (almost no effect)) | 5 (Herbicidal ratio of 90% or more (almost completely withered)) | – | 0 (Herbicidal ratio of 5% or lower (almost no effect)) | 0 (Herbicidal ratio of 5% or lower (almost no effect)) | 4 (Herbicidal ratio of 70% or higher and lower than 90%) | 5 (Herbicidal ratio of 90% or more (almost completely withered)) | 0 (Herbicidal ratio of 5% or lower (almost no effect)) | –
5 | CON=C(C)CC1CC(OC(=O)c2ccccc2)=C(c2c(C)cc(C)cc2C)C1=O (centres unmarked) [1-010] | 4 (Herbicidal ratio of 70% or higher and lower than 90%) | 5 (Herbicidal ratio of 90% or more (almost completely withered)) | – | 5 (Herbicidal ratio of 90% or more (almost completely withered)) | 5 (Herbicidal ratio of 90% or more (almost completely withered)) | – | – | – | 5 (Herbicidal ratio of 90% or more (almost completely withered)) | 5 (Herbicidal ratio of 90% or more (almost completely withered)) | – | 4 (Herbicidal ratio of 70% or higher and lower than 90%) | 4 (Herbicidal ratio of 70% or higher and lower than 90%) | 3 (Herbicidal ratio of 40% or higher and lower than 70%) | 5 (Herbicidal ratio of 90% or more (almost completely withered)) | 4 (Herbicidal ratio of 70% or higher and lower than 90%) | –
6 | CON=C(C)CC1CC(OCC#N)=C(c2c(C)cc(C)cc2C)C1=O (centres unmarked) [1-013] | 0 (Herbicidal ratio of 5% or lower (almost no effect)) | 0 (Herbicidal ratio of 5% or lower (almost no effect)) | – | 0 (Herbicidal ratio of 5% or lower (almost no effect)) | 0 (Herbicidal ratio of 5% or lower (almost no effect)) | – | – | – | 0 (Herbicidal ratio of 5% or lower (almost no effect)) | 0 (Herbicidal ratio of 5% or lower (almost no effect)) | – | 0 (Herbicidal ratio of 5% or lower (almost no effect)) | 0 (Herbicidal ratio of 5% or lower (almost no effect)) | 0 (Herbicidal ratio of 5% or lower (almost no effect)) | 0 (Herbicidal ratio of 5% or lower (almost no effect)) | 0 (Herbicidal ratio of 5% or lower (almost no effect)) | –
7 | CON=C(C)CC1CC(OS(=O)(=O)CCCCl)=C(c2c(C)cc(C)cc2C)C1=O (centres unmarked) [1-142] | – | 5 (Herbicidal ratio of 90% or more (almost completely withered)) | – | 5 (Herbicidal ratio of 90% or more (almost completely withered)) | – | – | – | – | – | 5 (Herbicidal ratio of 90% or more (almost completely withered)) | – | – | – | – | – | – | P: Stellaria media, herbicidal effect (criteria 0-5) [1]: 3 (Herbicidal ratio of 40% or higher and lower than 70%); c: corn, effect grade on crop ([3]; 320 g/ha): 0 (Herbicidal ratio of 5% or lower (almost no effect)); I: Avena fatua, herbicidal effect (criteria 0-5) [5]: 5 (Herbicidal ratio of 90% or more (almost completely withered)); g: rapeseed, effect grade on crop ([6]; 320 g/ha): 3 (Herbicidal ratio of 40% or higher and lower than 70%); G: Setaria viridis, herbicidal effect grade ([7]; 320 g/ha): 5 (Herbicidal ratio of 90% or more (almost completely withered)); K: Lolium multiflorum Lam., herbicidal effect grade ([8]; 320 g/ha): 5 (Herbicidal ratio of 90% or more (almost completely withered)); e: wheat, effect on crop (criteria 0-5) [9]: 4 (Herbicidal ratio of 70% or higher and lower than 90%); d: soybean, effect grade on crop ([11]; 320 g/ha): 0 (Herbicidal ratio of 5% or lower (almost no effect))

— patent US11000033B2, “Ketone or oxime compound, and herbicide” (NISSAN CHEMICAL CORPORATION, priority 2014, dated 2021)
